Laboratory results published in patent US9119816B2, “Method for prevention or treatment of diabetic angiogenesis impairment using C-peptide” (KANGWON NATIONAL UNIVERSITY UNIVERSITY-INDUSTRY COOPERATION …, priority 2012, dated 2015).
Entries after “also recorded” stand apart in the source; their conditions may differ.

Assays:
HUVECs [1] = assay: Inhibition of C-peptide-induced tube formation by HUVECs; format: cell-based, human; conditions: 0.5 nM C-peptide, 24-30 h
Protocol: (§1) FIG. 4A is a graph in which tube formation is quantified by confocal microscopy and results are represented as mean±S.D. from three independent experiments after HUVECs were seeded onto a Matrigel layer and incubated for 24-30 h with 0.5 nM C-peptide (C-pep) in the presence of the indicated concentrations of L-NAME, PD98058, and wortmannin, and
(§2) The formation of capillary-like networks by HUVECs on growth factor-reduced Matrigel (BD Biosciences, Franklin Lakes, N.J.) was achieved using a method known in the art. Briefly, 24-well culture plates were coated with Matrigel according to the manufacturer's instructions. HUVECs were seeded onto a layer of Matrigel at a density of 4×10^5 cells/well, and treated with VEGF or C-peptide at 37° C. for 24 to 30 h. The degree of tube formation was quantified by measuring the length of tubes from the images using the FV-300 software.
(§3) The roles of ERK1/2, PI3K/Akt, and NO in C-peptide-induced angiogenesis were examined using PD98059, wortmannin, and L-NG-nitroarginine methyl ester (L-NAME), respectively.

HUVECs [2] = assay: Inhibition of VEGF-induced tube formation by HUVECs; format: cell-based, human; conditions: 10 ng/ml VEGF, 24-30 h
Protocol: as §1, with “4B” for “4A”, “10 ng/ml VEGF” for “0.5 nM C-peptide (C-pep)”, “wortmannin.” for “wortmannin, and”
as §2, §3

[3] = In vivo Matrigel plug assay; conditions: mice, s.c. 0.5 ml Matrigel with 5 nM C-peptide or 100 ng/ml VEGF, 7 days, compared with control
Protocol: (§4) Male C57BL/6 mice, six weeks old, were purchased from Nara Biotech (Seoul, Korea). The mice were maintained in temperature-controlled clean racks with a 12-h light/dark cycle. All experiments were performed in accordance with the guidelines of the Institutional Animal Care and Use Ethics Committee of Kangwon National University.
A matrigel plug assay was used to examine whether C-peptide can induce angiogenesis in vivo. In this regard, in vivo Matrigel plug assays were performed according to a method known in the art.
Briefly, mice were injected subcutaneously with 0.5 ml of Matrigel containing 100 ng/ml VEGF or 5 nM C-peptide, and 10 U heparin. After 7 days, the Matrigel plugs were removed from the subcutaneous region, and photographed using a camera (Sony, Japan).

Akt = Akt phosphorylation by Western blot in HUVECs; format: cell-based, human; conditions: for Akt phosphorylation: 0.5 nM C-peptide or 10 ng/ml VEGF, time-dependent
Protocol: (§5) Since the activation of ERK1/2 and Akt is critical for the induction of cell migration and tube formation, an examination was made of the effect of C-peptide on ERK1/2 and AKT phosphorylation in HUVECs.
(§6) Phosphorylation of ERK1/2 and Akt was determined by Western blot analyses. Briefly, HUVECs were scraped off with ice-cold lysis buffer (50 mM Tris-HCl, pH 7.5, 1% Triton X-100, 150 mM NaCl, 1 mM EDTA, 0.1 mM PMSF, 10 μg/mL aprotinin, and 10 μg/mL leupeptin) and centrifuged at 18,000 g for 10 min at 4° C. The resulting cell lysates were separated by SDS-PAGE and transferred to polyvinylidene fluoride membranes.
(§7) Protein bands were visualized by exposure to X-ray films and a chemiluminescent substrate (Pierce, Rockford, Ill.). Levels of protein phosphorylation were normalized using the total amount of the proteins, and are expressed relative to unstimulated control levels (CON) in FIGS. 3A and 3B.

[4] = Cutaneous wound healing in streptozotocin-induced diabetic mice; format: in vivo
Protocol: as §4
Diabetic mice were generated by single intraperitoneal injection of a 100 mM citrate buffer (pH 4.5) containing streptozotocin in (150 mg/kg body weight). After injection, mice were supplied overnight with 10% sucrose to prevent sudden hypoglycemic shock. Sufficient hyperglycemia was observed two days after injection, as measured for blood glucose by the Accu-Check Active blood glucose monitor (Roch Diagnostics, Germany) and for glucosurea by Uriscan (TD Diagnostics, Young-In, Korea). After 1 week, mice with non-fasting blood glucose levels greater than 16 mM, polyuria, and glucosuria were defined diabetic and used for experiment. […]
The dorsal skin of the vertebral column was shaved with Veet cream before creating a wound. Full-thickness skin wounds, 4 mm in diameter, were created on the dorsal surface of the hind limbs with a biopsy punch, and closure was monitored with a digital camera. Open wound size was measured by tracing the wound margin using vernier calipers at regular intervals of two days, and monitored with a digital camera. […]

HUVECs [5] = assay: Wound healing (scratch) assay (HUVECs); format: cell-based, human; conditions: 24 h, C-peptide 0.5 nM, VEGF 10 ng/ml, p<0.01
Protocol: (§8) HUVECs and NIH3T3 cells were cultured on 6-well culture plates coated with gelatin. After being obtained, confluent cell layers were starved with low-serum media for 6 h, stained with 1 μM calcein-AM for 30 min, and wounded with a plastic scraper. Low-serum media and cell debris were removed, followed by replenishing the cell culture with 2 ml of low-serum media containing VEGF or C-peptide. Cells were then incubated at 37° C. for 24 h. Migrated cells was counted from images obtained using a confocal microscope (FV-300, Olympus).

NIH3T3 cells [6] = assay: Transwell migration assay (NIH3T3 fibroblasts); format: cell-based; conditions: 12 h; for chemotactic migration of fibroblast cells: FGF-2 1 ng/ml
Protocol: NIH3T3 fibroblasts obtained from ATCC (American Type Culture Collection) were grown in a DMEM medium supplemented with 10% calf serum, 100 U/ml penicillin, and 100 μg/ml streptomycin.
NIH3T3 cells were serum starved for 12 hrs in a low-serum medium (DMEM supplemented as above, but with only 0.1% calf serum).
(§9) Angiogenesis is accompanied by endothelial cell migration and capillary-like network formation. To evaluate the ability of C-peptide to induce angiogenesis by examining whether C-peptide stimulates endothelial cell migration, the chemotactic motility of HUVECs and NIH3T3 cells were assayed using TRANSWELL® Permeable Supports (Costar, Corning, N.Y.).
(§10) In detail, the lower surface of the filters was coated with 5 μl of 2% gelatin. Low-serum media containing VEGF, FGF-2 or C-peptide were placed in the lower wells. HUVECs or NIH3T3 cells were seeded at a density of 1×10^5 cells per 200 μl of the low-serum medium in each of the upper wells, and incubated at 37° C. for 12 h. Cells were fixed with 100% methanol for 15 min, stained with hematoxylin and eosin, and dried. The average number of migrated cells in three randomly chosen fields of view per insert was taken to quantify the extent of migration using a fluorescence inverted microscope (Olympus).
To elucidate the role of C-peptide in the migration of chemotactic fibroblast cells, NIH3T3 cells were treated with C-peptide for 12 h.

ERK1/2 = ERK1/2 phosphorylation by Western blot in HUVECs; format: cell-based, human; conditions: for ERK1/2 phosphorylation: 0.5 nM C-peptide or 10 ng/ml VEGF, time-dependent
Protocol: as §5, §6, §7

NO = assay: Intracellular NO production (DAF-FM DA, confocal microscopy) in HUVECs; format: cell-based, human; conditions: 2 h, 0.5 nM C-peptide (p<0.05) or 10 ng/ml VEGF (p<0.01)
Protocol: Since phosphorylation of Akt increases NO production by VEGF, which is the important factor mediating angiogenesis, an examination was made to see whether C-peptide can stimulate NO production. For this, intracellular NO levels were measured using DAF-FM DA (diaminofluorescein-FM diacetate, Molecular Probes, Eugene, Oreg.) according to a method known in the art.
Briefly, HUVECs were treated with VEGF or C-peptide in phenol red-free low-serum media for indicated times and incubated with 2 μM DAF-FM DA for the final 1 h. Thereafter, the cells were washed with low-serum media before confocal microscropy. Levels of intracellular NO were determined by comparing the fluorescence intensities of treated cells with those of untreated control cells and expressing them as fold differences.

HUVECs [7] = assay: Transwell migration assay (HUVECs); format: cell-based, human; conditions: 12 h; for chemotactic migration of endothelial cells: VEGF 10 ng/ml
Protocol: HUVECs were isolated from the human umbilical cord vein according to a well known process, and cells from passages 3 to 6 were used in the following experiments. Cells were inoculated into M199 culture media (supplemented with 20% FBS, 3 ng/ml bFGF, 5 U/ml heparin, 100 U/ml penicillin, and 100 μg/ml streptomycin) in 2% gelatin-coated coverslips, dishes, or plates, and grown at 37° C. in a humidified 5% CO2 incubator.
For experiments, cells were serum starved for 6 h by incubation in low-serum medium (M199 supplemented as above, but with only 1% FBS), and treated for a suitable time with 10 ng/ml VEGF in the presence or absence of various concentrations of C-peptide.
as §9, §10

[8] = Hair follicle regeneration and blood vessel formation around wound (whole-mount PECAM-1 immunostaining); format: in vivo; conditions: diabetic mice + C-peptide vs diabetic mice, 14 days after wounding
Protocol: The effect of C-peptide on the regeneration of hair follicles and the formation of blood vessels was observed by whole-mount immunostaining. In this regard, 14 days after wounding, mice were sacrificed, and the dorsal skin was removed for observation of hair follicles and blood vessels. Skin tissues from all the dead mice were excised using a scissor in order to avoid damaging its healing edge, fixed immediately in 4% paraformaldehyde in PBS overnight, and stored overnight in methanol at −20° C. For immunohistochemistry, tissue samples were blocked with 2% BSA in 0.1% TritonX-100 in TBS, and incubated with goat-polyclonal platelet endothelial cell adhesion molecule-I antibody for 2 d, followed by probing with Alexa-546-conjugated rabbit anti-goat IgG and then confocal microscopy.

HUVECs [9] = assay: Tube formation assay on Matrigel; format: cell-based, human; conditions: 24 to 30 h; for formation of capillary-like networks (tube formation): VEGF 10 ng/ml
Protocol: To examine whether C-peptide can activate angiogenesis in vitro, a tube formation assay was conducted in a Matrigel layer using HUVECs.
as §2

NIH3T3 cells [10] = assay: Wound healing (scratch) assay (NIH3T3 fibroblasts); format: cell-based; conditions: NIH3T3, 24 h; C-peptide 0.5 nM, FGF-2 1 ng/ml; p<0.01
Protocol: as §8
C-peptide-induced cell migration was further investigated by the wound-healing assay. […] FGF-2 also stimulated chemotactic migration and wound healing in fibroblast cells (p<0.01; FIG. 6).

Row | Molecule | inhibition of C-peptide-stimulated tube formation (HUVECs [1]) | effect on VEGF-induced tube formation (HUVECs [2]) | new blood vessel formation in Matrigel plug [3] | Akt phosphorylation (Akt) | cell migration to the wounded area (HUVECs [5]) | chemotactic migration of fibroblast cells (NIH3T3 cells [6]) | ERK1/2 phosphorylation (ERK1/2) | level of intracellular NO (NO) | chemotactic migration of endothelial cells (HUVECs [7]) | formation of capillary-like networks (tube formation) (HUVECs [9]) | cell migration to the wounded area (fibroblasts) (NIH3T3 cells [10]) | other results
1 | COC(=O)[C@@H](N)CCCNC(=N)N[N+](=O)[O-] [L-NAME, L-NG-nitroarginine methyl ester] | dose-dependent inhibition | prevented |  |  |  |  |  |  |  |  |  | 
2 | COc1cccc(-c2cc(=O)c3ccccc3o2)c1N [PD98059] | inhibited | prevented |  |  |  |  |  |  |  |  |  | concentration of maximal inhibition of C-peptide-stimulated tube formation (HUVECs [1]): 10 µM
3 | C-peptide |  |  | significantly higher induction | induced | significantly stimulated | dose-dependent increase | increased | significantly elevated | dose-dependent increase | stimulated | significantly stimulated | time of maximal effect on Akt phosphorylation (Akt; 0.5 nM C-peptide): 15 min; wound area versus normal mice ([4]; STZ-diabetic mice, C-peptide 35 pmol/kg/min s.c. osmotic pump, 4 mm wound, 4 and 10 days after skin injury): no significant differences; wound closure compared with diabetic mice ([4]; diabetic mice + C-peptide vs diabetic mice): accelerated; concentration of maximal effect on chemotactic migration of fibroblast cells (NIH3T3 cells [6]): 1 nM; ERK1/2 activation maintained until (ERK1/2; 0.5 nM C-peptide): 60 min; time of maximal stimulation of ERK1/2 phosphorylation (ERK1/2; 0.5 nM C-peptide): 15 min; concentration of maximal effect on chemotactic migration of endothelial cells (HUVECs [7]): 0.5 nM; regeneration (number) of hair follicles around wound [8]: significant increase; also recorded: increased; formation (number) of blood vessels around wound ([8]; PECAM-1 staining): significant increase; also recorded: increased; concentration of maximal effect on formation of capillary-like networks (HUVECs [9]): 0.5 nM
4 | FGF-2: growth factor used as comparator for fibroblast migration [reference compound] |  |  |  |  |  | stimulated |  |  |  |  | stimulated | 
5 | vascular endothelial growth factor [VEGF, reference compound] |  |  | similar | induced | stimulated |  | induced | higher level | stimulated | induced |  | 
